Laboratory results as given in US20210354140A1, “MICROFLUIDIC DEVICE AND USES THEREOF” (Bar Ilan University, priority 2020, published 2021).
Entries after “also recorded” stand apart in the source; their conditions may differ. Like-named read-outs stand apart in the source and are kept apart here.

How the values were obtained:
[1] = tested on: Non-small cell lung carcinoma patients; conditions: patients first treated with Alectinib, then replaced with Crizotinib; cited from earlier work
[2] = tested on: pleural effusion samples from Non-small cell lung carcinoma patients; assay: CSRA of patient pleural effusion samples, Propidium iodide cell viability; assay type: cell-based, human; conditions: 15 μM, 24-hour exposure; samples from 8 patients
Description: The drug response of pleural effusion samples taken from 8 Non-small cell lung carcinoma patients was tested in a preliminary experiment. […] The genomic analysis could not predict however development of resistance. For each of the samples, the cells were first uploaded into the chip for a 24-hour acclimation period after which the cells were exposed different drugs. The 24 hours response to two […], Alectinib and Crizotinib (15 μM) is shown herein. Cell viability was measured using Propidium iodide, which dyes the nuclei of dead cells (magenta). It was known that the biopsies originated from patients that were treated with Alectinib and Crizotinib, however their response to each treatment was not known nor the order in which the drugs were administered, in order to avoid any sort of confirmation bias when collecting and analyzing the data. The moment when the pleural effusions were collected during the treatments was neither known. Crizotinib, like Alectinib is an ALK inhibitor and works by operating as a competitive inhibitor to the ATP binding site of the tyrosine kinase enzyme that the ALK gene codes for and in doing so prevents its carcinogenic activity. […] At the end of the 24-hour exposure period, the data from the experiments was analyzed and calculated to determine the survival and or mortality rate of the cells.

MCF-7 cells [3] = assay: MCF-7 cell response to a printed drug array, live/dead assay; assay type: cell-based; conditions: drugs spotted at 0, 0.1, 0.5, 0.7 and 1 mM; 2 hours incubation
Description: MCF7 cells response to 4 different drugs (Doxorubicin, Docetaxel, Pacletoxel, Methotrexate) at 4 different concentrations (0.1-1 mM). The drugs were printed on the slide and aligned into drug chamber inside the device. Live/dead assay was performed by double staining dead cells (Red) and live cells (Green).
(§1) The evaluation of anticancer drug effect on cells vitality was conducted in two steps. First, Docetaxel was used, which is one of the first-line chemotherapies used for metastatic breast cancer. Docetaxel, at different concentrations (1 uM, 10 uM and 100 uM), was flown into the microfluidics device for 5 minutes, following the cell accommodation period. Then the cells, were incubated with the drug for 2 hours. Cell feeding, by diffusion, commenced until the experiment was finished. Live/dead assay was applied up to 48 hours following drug administration. After the evaluation of cells response to one drug-Docetaxel the effect was tested of an array of drugs on the cells. The drugs were printed on a glass substrate and their spotted array was aligned to the drug chamber in the microfluidic device.
(§2) Custom assays for cells vitality evaluation were applied. Living cells were stained with Calcein-AM (50 ng/ul in DMEM medium) (Biotest, Israel) which colors the cytoplasm. Dead cells were stained with Propidium Iodide (PI) (Sigma, Israel) (15 ng/ul in DMEM medium), coloring the nuclear. All cells nuclear (live and dead) were stained by Hoechst 33342 stain (Bis-Benzimide H3342 trihydro-chloride, Sigma, Israel) (10 ng/μl in DMEM medium). A solution of all three dyes was prepared and flowed within the chip. The cells were washed with the solution for 20 min at a pressure of 2 psi. Following dyes application, the controlled valves were closed and the device was incubated for 30 min at 37° C. 5% CO2 to allow cells staining. Next, the valves were opened and the device was washed by phenol-free DMEM medium for 15 min, to remove colures remains.
The drugs, Doxorubicin (Doxorubicin hydrochloride, Tocirs, USA), Docetaxel, Paclitaxel Methotrexate (drugs were supplied with the courtesy of Dr. Levanon, The institute of Oncology, Chaim Sheba Medical Center, Israel), were spotted on a microscope slide at 5 different concentrations (0, 0.1, 0.5, 0.7 and 1 mM) and then covered with the microfluidic device, encompassing the thy drugs inside the drug chamber. Cells were seeded on the device and cultured for 2 hours. Then the valve blocking the drug chamber was opened and the drugs were flooded and allowed to diffuse out and incubated with the cells for 2 hours. A different response was observed dynamics to the different drugs, expressed by different mortality rates.

MCF7 cells = assay: Live/dead staining assay in microfluidic device after Docetaxel exposure, MCF7 cells; assay type: cell-based; parameters: dose or concentration left out as unconfirmed; conditions: Docetaxel for 2 hours, 48 hours after seeding; live/dead assay at T0, 5, 24, 48 hours; n=47; vs untreated control
Description: The cells were then dissociated from the culture dish at 60-70% confluence with 0.25% trypsin in PBS, resuspended in DMEM containing 10% FBS and introduced into the microfluidic device. […] MCF7/Dx cell line was grown in the presence of 10 ^M doxorubicin and cultured for 4 weeks in drug-free medium prior to use.
The evaluation of anticancer drug effect on cells vitality was conducted in two steps. First, Docetaxel was used, which is one of the first-line chemotherapies used for metastatic breast cancer. […] Then the cells, were incubated with the drug for 2 hours. Cell feeding, by diffusion, commenced until the experiment was finished. Live/dead assay was applied up to 48 hours following drug administration. […]
(§3) Statistical analysis was carried up using Microsoft Excel 2016 Data Analysis package and RStudio (RStudio Team (2015). RStudio: Integrated Development for R. RStudio, Inc., Boston, Mass.) Images were processed with NIS Elements Analysis software (ver. 40.20.01 Nikon, USA). For all experiments, variables are expressed as traditional boxplots, presenting median, maximum, minimum and Interquartiie range (IQR). […] In all cases, significance was defined as p<0.05, one way analysis of variance was evaluated using Anova, while multiple comparison was evaluated using Tukey's range test (post-hoc Anova analysis). […]

[4] = tested on: cells in microfluidic cell chamber; assay: Dynamics of cell death following Docetaxel treatment (FIG. 6), PI staining in cell chambers; assay type: cell-based; conditions: Docetaxel 10 uM, 2 hours exposure, 50 drug chambers vs 50 control chambers
Description: FIG. 6A: Live images of a representative cell chamber before (T0) and after (up to 20 hours) exposure to Docetaxel (10 uM). Dead cells were stained with Red (PI).
FIG. 6B: Box plot analysis of the mortality rate (%) of cells following 2 hours of exposure to Docetaxel (10 uM)—T0. Nearly 100 cells chambers were analyzed, 50 following drug exposure and 50 control—no drug exposure. […] Two tail paired T-test analysis were conducted.
Custom assays for cells vitality evaluation were applied. Living cells were stained with Calcein-AM (50 ng/ul in DMEM medium) (Biotest, Israel) which colors the cytoplasm. Dead cells were stained with Propidium Iodide (PI) (Sigma, Israel) (15 ng/ul in DMEM medium), coloring the nuclear. […]
Statistical analysis was carried up using Microsoft Excel 2016 Data Analysis package and RStudio (RStudio Team (2015). RStudio: Integrated Development for R. RStudio, Inc., Boston, Mass.) Images were processed with NIS Elements Analysis software (ver. 40.20.01 Nikon, USA). For all experiments, variables are expressed as traditional boxplots, presenting median, maximum, minimum and Interquartiie range (IQR). […] In all cases, significance was defined as p<0.05, one way analysis of variance was evaluated using Anova, while multiple comparison was evaluated using Tukey's range test (post-hoc Anova analysis).

293T cells = assay: Live/dead staining assay in microfluidic device after Docetaxel exposure, 293T cells; assay type: cell-based; parameters: dose or concentration left out as unconfirmed; conditions: Docetaxel for 2 hours, 48 hours after seeding; live/dead assay at T0, 5, 24, 48 hours
Description: as §1, with “Docetaxel, at different concentrations (1 uM, 10 uM and 100 uM), was flown into the microfluidics device for 5 minutes, following the cell accommodation period.” left out
Custom assays for cells vitality evaluation were applied. […]
as §3

[5] = tested on: dispersed cells and cell clusters; assay: cells; assay type: cell-based
Description: Cells were exposed twice to Docetaxel once at a concentration of 1 μM and 24 hours later re-exposed to 10 μM Docetaxel for a period of 2 hrs. […] P value was determined using two-tail T-test (n=43).
FIG. 9A: Cells were exposed twice to Docetaxel once at a concentration of 1 μM and 48 hours later a second exposure to 10 μM. Images were taken 24 hours after the second drug exposure T24 (which is 120 hours post seeding).
Cells were exposed to 10 μM Docetaxel for 2 hours. The dynamic of cell death was detected using PI staining. […] Monitoring proceeded up to 28 hours.
as §2, with “Next, the valves were opened and the device was washed by phenol-free DMEM medium for 15 min, to remove colures remains.” left out

[6] = tested on: MCF-7/dx (Doxorubicin resistant cells); assay: Doxorubicin treatment specificity in microfluidic device, Doxorubicin resistant MCF-7/dx cells; conditions: drug resistant MCF7/Dx cells; 24 hours of 10 μM doxorubicin
MCF-7 cells [7] = assay: Doxorubicin treatment specificity in microfluidic device, MCF-7 cells; conditions: drug sensitive MCF7 cells; 24 hours of 10 μM doxorubicin
[8] = in vivo; cited from earlier work

CCc1cc2c(cc1N1CCC(N3CCOCC3)CC1)C(C)(C)c1[nH]c3cc(C#N)ccc3c1C2=O [Alectinib]
patient response to treatment (patient history) [1]: developed resistance
24 hours drug response of patient samples (resistance / sensitivity) [2]: All samples were resistant; also recorded: all the patients were resistant

C[C@@H](Oc1cc(-c2cnn(C3CCNCC3)c2)cnc1N)c1c(Cl)ccc(F)c1Cl [Crizotinib]
patient response to treatment (patient history) [1]: the response was different between patients
24 hours drug response of patient samples (resistance / sensitivity) [2]: varying sensitivity; also recorded: varying from resistance to medium or high response

CC(=O)O[C@@]12CO[C@@H]1C[C@H](O)[C@@]1(C)C(=O)[C@H](O)C3=C(C)[C@@H](OC(=O)[C@H](O)[C@@H](NC(=O)OC(C)(C)C)c4ccccc4)C[C@@](O)([C@@H](OC(=O)c4ccccc4)[C@H]21)C3(C)C [Docetaxel]
dose dependence of sensitivity of MCF-7 cells (MCF-7 cells [3]): dose dependence sensitivity was observed
mortality rate of MCF-7 cells versus drug dose (MCF-7 cells [3]): mortality rate increased starting from the lower dose of drug (0.1 mM) (p<0.05)
mortality rate of MCF7 cells post drug exposure (MCF7 cells): significantly increased (p<0.05) within 5 hours post drug exposure with no further increase in mortality rate up to 48 hours
cells vitality immediately after 2 hrs of drug exposure (T0 drug) [4]: no differences in cells vitality
cells mortality rate twenty hours post cultivation ([4]; 20 hours): following drug exposure a further significant increase was observed (p<0.05)
mortality rate of 293T cells post drug exposure (293T cells): increase in mortality rate after 5 hrs (p<0.05) with no further deterioration
mortality at 1 µM ([5]; read-out: Cluster mortality rate (Mean±S.E)): 33 ± 5%
mortality at 1 µM ([5]; read-out: mortality rate of the dispersed cells population (Mean±S.E)): 65 ± 6%

COc1cccc2c1C(=O)c1c(O)c3c(c(O)c1C2=O)C[C@@](O)(C(=O)CO)C[C@@H]3O[C@H]1C[C@H](N)[C@H](O)[C@H](C)O1 [Doxorubicin]
morphological features of apoptotic/necrotic processes [6]: almost absent
dose dependence of sensitivity of MCF-7 cells (MCF-7 cells [3]): dose dependence sensitivity was observed
mortality rate of MCF-7 cells versus drug dose (MCF-7 cells [3]): mortality rate increased starting from the lower dose of drug (0.1 mM) (p<0.05)
cells showing morphological features of apoptotic/necrotic processes (MCF-7 cells [7]): about 98%

CN(Cc1cnc2nc(N)nc(N)c2n1)c1ccc(C(=O)N[C@@H](CCC(=O)O)C(=O)O)cc1 [Methotrexate]
dose dependence of sensitivity of MCF-7 cells (MCF-7 cells [3]): dose dependence sensitivity was observed
mortality rate of MCF-7 cells versus drug dose (MCF-7 cells [3]): mortality rate increased starting from the lower dose of drug (0.1 mM) (p<0.05)

CC(=O)O[C@H]1C(=O)[C@@]2(C)[C@H]([C@H](OC(=O)c3ccccc3)[C@]3(O)C[C@H](OC(=O)[C@H](O)[C@@H](NC(=O)c4ccccc4)c4ccccc4)C(C)=C1C3(C)C)[C@]1(OC(C)=O)CO[C@@H]1C[C@@H]2O [Paclitaxel]
dose dependence of sensitivity of MCF-7 cells (MCF-7 cells [3]): dose dependence sensitivity was observed
mortality rate of MCF-7 cells versus drug dose (MCF-7 cells [3]): mortality rate increased starting from the lower dose of drug (0.1 mM) (p<0.05)

Infliximab: purified, recombinant DNA-derived chimeric human-mouse IgG monoclonal antibody against TNF-α
serum half-life [8]: 228 h
time detectable in serum after infusion treatment [8]: 8 weeks
